Molecules are shown by their SMILES. The source made the active and inactive calls. The rule behind the calls is not given here.

The record followed here is ChEMBL document CHEMBL4311992, “Discovery of 3-(((9H-purin-6-yl)amino)methyl)-4,6-dimethylpyridin-2(1H)-one derivatives as novel tubulin polymerization inhibitors for treatment of cancer” (Eur J Med Chem, 2019).

In test [1] the target is Serine/threonine-protein kinase tousled-like 2 (Homo sapiens) (UniProt Q86UE8). Kind of test: Inhibition of human TLK2 (387 to end residues) using casein as substrate measured after 40 mins in presence of [gamma33P]ATP by scintillation counting method. Further details: scale not given: the % may be the effect or the level left.
Chain of Serine/threonine-protein kinase tousled-like 2 (Homo sapiens) (Q86UE8 whole entry, looked up): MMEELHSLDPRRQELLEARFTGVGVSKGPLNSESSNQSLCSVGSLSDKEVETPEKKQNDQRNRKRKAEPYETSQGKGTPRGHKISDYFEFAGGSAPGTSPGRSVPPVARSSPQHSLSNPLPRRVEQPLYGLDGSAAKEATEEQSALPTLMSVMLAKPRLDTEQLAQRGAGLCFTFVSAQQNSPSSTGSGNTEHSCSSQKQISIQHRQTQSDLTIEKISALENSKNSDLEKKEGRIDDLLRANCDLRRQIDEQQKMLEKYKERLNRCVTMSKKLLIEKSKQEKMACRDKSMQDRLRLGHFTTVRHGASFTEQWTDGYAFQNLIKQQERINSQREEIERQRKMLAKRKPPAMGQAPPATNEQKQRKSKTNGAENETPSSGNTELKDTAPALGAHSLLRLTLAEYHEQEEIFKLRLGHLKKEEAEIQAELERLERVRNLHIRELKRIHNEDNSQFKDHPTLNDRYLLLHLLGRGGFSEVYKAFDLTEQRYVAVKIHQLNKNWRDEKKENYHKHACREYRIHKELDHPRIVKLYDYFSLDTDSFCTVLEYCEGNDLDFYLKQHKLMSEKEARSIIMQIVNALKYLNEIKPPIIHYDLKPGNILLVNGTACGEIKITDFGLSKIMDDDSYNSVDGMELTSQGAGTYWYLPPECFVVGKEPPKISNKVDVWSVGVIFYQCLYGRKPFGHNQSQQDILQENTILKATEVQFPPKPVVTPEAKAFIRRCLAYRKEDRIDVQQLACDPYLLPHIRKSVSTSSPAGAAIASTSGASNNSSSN
The target in test [2] is Mitogen-activated protein kinase 11 (Homo sapiens) (UniProt Q15759). Kind of test: Inhibition of recombinant full-length human SAPK2b assessed as residual activity at 10 uM using myelin basic protein as substrate measured after 40 mins in presence of [gamma33P]ATP by scintillation counting method.
The target in test [3] is Protein kinase C zeta type (Homo sapiens) (UniProt Q05513). Kind of test: Inhibition of recombinant human PKCzeta (2 to end residues) assessed as residual activity at 10 uM using ERMRPRKRQGSVRRRV as substrate measured after 40 mins in presence of [gamma33P]ATP by scintillation counting method.
Test [4] has as its target Serine/threonine-protein kinase Nek7 (Homo sapiens) (UniProt Q8TDX7). Put plainly: Inhibition of recombinant human NEK7 (2 to end residues) assessed as residual activity at 10 uM using FLAKSFGSPNRAYKK as substrate measured after 40 mins in presence of [gamma33P]ATP by scintillation counting method.
Test [5] concerns the target Serine/threonine-protein kinase 38-like (Homo sapiens) (UniProt Q9Y2H1). Kind of test: Inhibition of recombinant human NDR2 (83 to end residues) assessed as residual activity at 10 uM using RSRSRSRSRSRSRSR as substrate measured after 40 mins in presence of [gamma33P]ATP by scintillation counting method.
Test [6] has as its target Mitogen-activated protein kinase kinase kinase 3 (Homo sapiens) (UniProt Q99759). Kind of test: Inhibition of recombinant full-length human MEKK3 assessed as residual activity at 10 uM using myelin basic protein as substrate measured after 40 mins in presence of [gamma33P]ATP by scintillation counting method.
Test [7] addresses Tyrosine-protein kinase JAK1 (Homo sapiens) (UniProt P23458). Kind of test: Inhibition of recombinant human JAK1 (866 to end residues) assessed as residual activity at 10 uM using GEEPLYWSFPAKKK as substrate measured after 40 mins in presence of [gamma33P]ATP by scintillation counting method.
Test [8] addresses Insulin-like growth factor 1 receptor (Homo sapiens) (UniProt P08069). Put plainly: Inhibition of recombinant human activated IGF1R (959 to end residues) assessed as residual activity at 10 uM using KKKSPGEYVNIEFG as substrate measured after 40 mins in presence of [gamma33P]ATP by scintillation counting method.
In test [9] the target is Mitogen-activated protein kinase kinase kinase kinase 1 (Homo sapiens) (UniProt Q92918). Put plainly: Inhibition of recombinant human HPK1 (1 to 346 residues) assessed as residual activity at 10 uM using myelin basic protein as substrate measured after 40 mins in presence of [gamma33P]ATP by scintillation counting method.
For test [10], the target named is Calcium/calmodulin-dependent protein kinase type II subunit beta (Homo sapiens) (UniProt Q13554). Kind of test: Inhibition of recombinant full-length human CaMK2beta (1 to 315 residues) assessed as residual activity at 10 uM using calmodulin as substrate measured after 40 mins in presence of [gamma33P]ATP by scintillation counting method.
The target of test [11] is Cyclin-dependent kinase 5/CDK5 activator 1 (Homo sapiens) (UniProt Q00535+Q15078). Put plainly: Inhibition of recombinant full-length human CDK5/p25 assessed as residual activity at 10 uM using histone H1 as substrate measured after 40 mins in presence of [gamma33P]ATP by scintillation counting method. The format is protein-complex assay.
Test [12] has as its target Dual specificity protein kinase CLK3 (Homo sapiens) (UniProt P49761). Put plainly: Inhibition of recombinant full-length human CLK3 assessed as residual activity at 10 uM using ERMRPRKRQGSVRRRV as substrate measured after 40 mins in presence of [gamma33P]ATP by scintillation counting method.
The next test deals with HCT-116. Put plainly: Cell cycle arrest in human HCT116 cells assessed as up regulation of cdc25 expression up to 150 nM after 24 hrs by Western blot analysis. In kind it is functional, cell-based.
Test [13] addresses Serine/threonine-protein kinase Chk2 (Homo sapiens) (UniProt O96017). Put plainly: Inhibition of recombinant human CHK2 (5 to end residues) assessed as residual activity at 10 uM using KKKVSRSGLYRSPSMPENLNRPR as substrate measured after 40 mins in presence of [gamma33P]ATP by scintillation counting method.
The target of test [14] is Myotonin-protein kinase (Homo sapiens) (UniProt Q09013). Kind of test: Inhibition of recombinant human DMPK (1 to 549 residues) assessed as residual activity at 10 uM using KKSRGDYMTMQIG as substrate measured after 40 mins in presence of [gamma33P]ATP by scintillation counting method.
For test [15], the target named is Receptor-type tyrosine-protein kinase FLT3 (Homo sapiens) (UniProt P36888). Kind of test: Inhibition of recombinant human Flt3 (564 to end residues) assessed as residual activity at 10 uM using EAIYAAPFAKKK as substrate measured after 40 mins in presence of [gamma33P]ATP by scintillation counting method.
Chain of Receptor-type tyrosine-protein kinase FLT3 (Homo sapiens) (P36888 whole entry): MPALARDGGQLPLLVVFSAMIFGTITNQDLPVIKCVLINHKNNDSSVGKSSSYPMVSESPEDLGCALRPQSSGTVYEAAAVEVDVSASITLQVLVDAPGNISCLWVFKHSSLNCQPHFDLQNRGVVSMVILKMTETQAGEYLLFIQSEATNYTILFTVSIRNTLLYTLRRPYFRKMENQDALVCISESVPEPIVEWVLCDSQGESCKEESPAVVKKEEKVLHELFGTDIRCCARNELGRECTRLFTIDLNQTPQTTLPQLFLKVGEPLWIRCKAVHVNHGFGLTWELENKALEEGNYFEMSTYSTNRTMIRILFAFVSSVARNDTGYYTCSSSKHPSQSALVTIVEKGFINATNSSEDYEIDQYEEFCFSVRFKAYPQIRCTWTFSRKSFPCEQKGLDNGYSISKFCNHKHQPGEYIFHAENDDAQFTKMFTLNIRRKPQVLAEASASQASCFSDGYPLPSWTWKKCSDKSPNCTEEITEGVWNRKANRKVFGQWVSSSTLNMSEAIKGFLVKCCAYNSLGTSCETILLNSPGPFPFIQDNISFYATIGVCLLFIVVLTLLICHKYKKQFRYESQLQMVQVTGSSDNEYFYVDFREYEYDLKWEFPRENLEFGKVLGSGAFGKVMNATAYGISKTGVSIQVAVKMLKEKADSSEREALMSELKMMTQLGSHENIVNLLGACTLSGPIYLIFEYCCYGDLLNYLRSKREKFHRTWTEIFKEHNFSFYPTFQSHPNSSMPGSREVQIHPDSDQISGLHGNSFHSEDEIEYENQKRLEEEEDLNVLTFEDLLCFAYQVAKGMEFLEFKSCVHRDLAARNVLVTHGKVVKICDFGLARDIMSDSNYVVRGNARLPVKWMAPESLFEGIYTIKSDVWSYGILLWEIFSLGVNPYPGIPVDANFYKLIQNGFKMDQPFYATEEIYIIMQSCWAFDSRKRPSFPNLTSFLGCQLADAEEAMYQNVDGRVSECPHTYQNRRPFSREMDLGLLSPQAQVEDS
For test [16], the target named is Tyrosine-protein kinase Fyn (Homo sapiens) (UniProt P06241). Put plainly: Inhibition of recombinant full-length human FYN assessed as residual activity at 10 uM using Cdc2 peptide as substrate measured after 40 mins in presence of [gamma33P]ATP by scintillation counting method.
Chain of Tyrosine-protein kinase Fyn (Homo sapiens) (P06241 2-537 limits assumed): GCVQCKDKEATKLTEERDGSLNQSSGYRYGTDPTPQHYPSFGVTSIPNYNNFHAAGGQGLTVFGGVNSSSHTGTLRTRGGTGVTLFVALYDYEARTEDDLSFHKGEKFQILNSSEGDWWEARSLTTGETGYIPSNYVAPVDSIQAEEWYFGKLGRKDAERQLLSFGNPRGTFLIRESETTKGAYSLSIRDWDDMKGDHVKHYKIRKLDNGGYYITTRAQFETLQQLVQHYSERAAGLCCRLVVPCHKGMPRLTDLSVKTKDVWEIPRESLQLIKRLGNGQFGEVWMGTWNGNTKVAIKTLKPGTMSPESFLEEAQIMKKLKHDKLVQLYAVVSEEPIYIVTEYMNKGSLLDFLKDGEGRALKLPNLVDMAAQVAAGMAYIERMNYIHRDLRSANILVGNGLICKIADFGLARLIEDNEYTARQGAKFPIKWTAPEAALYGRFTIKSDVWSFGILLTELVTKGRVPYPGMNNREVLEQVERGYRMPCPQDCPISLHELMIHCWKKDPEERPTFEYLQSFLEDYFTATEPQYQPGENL
Test [17] deals with Leucine-rich repeat serine/threonine-protein kinase 2 (Homo sapiens) (UniProt Q5S007). Put plainly: Inhibition of recombinant human LRRK2 (970 to end residues) assessed as residual activity at 10 uM using RLGRDKYKTLRQIRQ as substrate measured after 40 mins in presence of [gamma33P]ATP by scintillation counting method.
Test [18] has as its target Serine/threonine-protein kinase MRCK gamma (Homo sapiens) (UniProt Q6DT37). Put plainly: Inhibition of recombinant human MRCKgamma assessed as residual activity at 10 uM using KKRNRTLTV as substrate measured after 40 mins in presence of [gamma33P]ATP by scintillation counting method.
In test [19] the target is Serine/threonine-protein kinase pim-2 (Homo sapiens) (UniProt Q9P1W9). Kind of test: Inhibition of recombinant human Pim2 (2 to end residues) assessed as residual activity at 10 uM using RSRHSSYPAGT as substrate measured after 40 mins in presence of [gamma33P]ATP by scintillation counting method.
Chain of Serine/threonine-protein kinase pim-2 (Homo sapiens) (Q9P1W9 whole entry, looked up): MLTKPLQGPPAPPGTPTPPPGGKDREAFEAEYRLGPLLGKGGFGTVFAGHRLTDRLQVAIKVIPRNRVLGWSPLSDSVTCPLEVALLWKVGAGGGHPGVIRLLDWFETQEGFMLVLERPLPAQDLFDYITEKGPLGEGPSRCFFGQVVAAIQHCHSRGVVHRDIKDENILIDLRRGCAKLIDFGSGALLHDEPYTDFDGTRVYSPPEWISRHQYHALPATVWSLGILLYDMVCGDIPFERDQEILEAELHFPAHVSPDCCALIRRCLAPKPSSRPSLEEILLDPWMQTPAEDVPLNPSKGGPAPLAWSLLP
Test [20] concerns the target Serine/threonine-protein kinase 32C (Homo sapiens) (UniProt Q86UX6). Put plainly: Inhibition of recombinant full-length human STK32C assessed as residual activity at 10 uM using casein as substrate measured after 120 mins in presence of [gamma33P]ATP by scintillation counting method.
Test [21] concerns the target Wee1-like protein kinase 2 (Homo sapiens) (UniProt P0C1S8). Put plainly: Inhibition of recombinant full-length human WEE1b assessed as residual activity at 10 uM using LSNLYHQGKFLQTFCGSPLYRRR as substrate measured after 120 mins in presence of [gamma33P]ATP by scintillation counting method.
Test [22] deals with PI3-kinase p110-alpha/p85-alpha (Homo sapiens) (UniProt P27986+P42336). Put plainly: Inhibition of recombinant full-length human PI3K p110alpha/p85alpha assessed as residual activity at 10 uM using phosphatidylinositol-4, 5-bisphosphate as substrate measured after 40 mins by fluorescence assay. The format is protein-complex assay.

Chain of Serine/threonine-protein kinase 38-like (Homo sapiens) (Q9Y2H1 2-464 limits assumed): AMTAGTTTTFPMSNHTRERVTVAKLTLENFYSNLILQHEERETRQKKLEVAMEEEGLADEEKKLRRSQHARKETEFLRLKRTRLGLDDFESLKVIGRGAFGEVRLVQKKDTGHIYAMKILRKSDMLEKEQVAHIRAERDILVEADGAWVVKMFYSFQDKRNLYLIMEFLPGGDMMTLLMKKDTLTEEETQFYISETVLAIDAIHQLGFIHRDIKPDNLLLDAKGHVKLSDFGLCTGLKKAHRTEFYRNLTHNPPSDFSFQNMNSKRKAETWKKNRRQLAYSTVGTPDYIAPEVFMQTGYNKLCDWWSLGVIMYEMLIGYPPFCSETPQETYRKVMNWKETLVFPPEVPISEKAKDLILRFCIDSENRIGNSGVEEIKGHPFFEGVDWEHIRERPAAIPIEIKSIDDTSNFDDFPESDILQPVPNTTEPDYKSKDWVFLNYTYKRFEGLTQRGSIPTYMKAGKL
Chain of Serine/threonine-protein kinase 32C (Homo sapiens) (Q86UX6 whole entry): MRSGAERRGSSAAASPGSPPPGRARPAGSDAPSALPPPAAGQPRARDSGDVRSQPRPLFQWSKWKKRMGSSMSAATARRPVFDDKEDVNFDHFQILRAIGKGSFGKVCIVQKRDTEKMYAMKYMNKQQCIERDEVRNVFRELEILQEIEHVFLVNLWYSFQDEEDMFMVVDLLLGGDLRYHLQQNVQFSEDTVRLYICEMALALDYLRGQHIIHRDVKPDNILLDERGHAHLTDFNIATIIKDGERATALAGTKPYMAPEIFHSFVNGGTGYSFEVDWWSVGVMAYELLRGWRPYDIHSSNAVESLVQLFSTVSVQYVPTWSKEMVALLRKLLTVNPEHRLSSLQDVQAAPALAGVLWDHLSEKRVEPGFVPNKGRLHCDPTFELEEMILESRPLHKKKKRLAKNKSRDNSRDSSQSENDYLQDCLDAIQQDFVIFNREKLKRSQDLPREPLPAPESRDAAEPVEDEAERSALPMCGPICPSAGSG
Chain of Wee1-like protein kinase 2 (Homo sapiens) (P0C1S8 whole entry, looked up): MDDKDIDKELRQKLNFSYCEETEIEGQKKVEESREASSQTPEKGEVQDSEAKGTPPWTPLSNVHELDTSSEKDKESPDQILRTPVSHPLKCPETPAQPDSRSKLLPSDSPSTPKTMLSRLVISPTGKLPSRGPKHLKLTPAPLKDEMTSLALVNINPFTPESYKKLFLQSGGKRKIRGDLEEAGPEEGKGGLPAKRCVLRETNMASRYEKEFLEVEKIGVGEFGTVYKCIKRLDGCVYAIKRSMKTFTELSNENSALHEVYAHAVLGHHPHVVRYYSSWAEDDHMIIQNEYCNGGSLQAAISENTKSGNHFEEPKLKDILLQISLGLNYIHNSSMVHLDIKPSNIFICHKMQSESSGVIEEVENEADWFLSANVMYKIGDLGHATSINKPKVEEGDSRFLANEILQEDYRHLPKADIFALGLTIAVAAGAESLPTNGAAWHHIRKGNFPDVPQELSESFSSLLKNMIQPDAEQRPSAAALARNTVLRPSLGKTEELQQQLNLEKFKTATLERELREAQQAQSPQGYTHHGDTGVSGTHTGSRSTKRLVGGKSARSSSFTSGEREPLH
Chain of Mitogen-activated protein kinase kinase kinase 3 (Homo sapiens) (Q99759 whole entry): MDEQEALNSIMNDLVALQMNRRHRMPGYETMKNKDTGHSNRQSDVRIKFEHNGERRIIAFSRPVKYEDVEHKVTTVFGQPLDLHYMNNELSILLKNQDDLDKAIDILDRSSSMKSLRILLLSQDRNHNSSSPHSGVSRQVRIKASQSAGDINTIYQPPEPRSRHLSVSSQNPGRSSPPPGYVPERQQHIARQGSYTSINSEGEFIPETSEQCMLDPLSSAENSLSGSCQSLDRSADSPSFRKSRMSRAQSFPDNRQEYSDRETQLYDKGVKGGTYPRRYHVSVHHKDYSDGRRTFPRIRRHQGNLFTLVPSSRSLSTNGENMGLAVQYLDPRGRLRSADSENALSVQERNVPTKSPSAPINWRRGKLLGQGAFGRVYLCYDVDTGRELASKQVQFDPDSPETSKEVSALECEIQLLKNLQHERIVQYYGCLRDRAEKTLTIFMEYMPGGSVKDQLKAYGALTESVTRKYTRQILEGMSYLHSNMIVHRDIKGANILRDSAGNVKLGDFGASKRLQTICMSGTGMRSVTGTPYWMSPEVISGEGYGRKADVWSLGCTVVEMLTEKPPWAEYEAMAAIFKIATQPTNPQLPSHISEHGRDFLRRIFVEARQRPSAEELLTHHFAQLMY

`Cc1cc(C)c(CNc2nc(Cl)nc3c2ncn3C2CCCC2)c(=O)[nH]1`: the Activity turned out to be 119% in test [1]; 100% in [2]; 99.5% in test [3]; 106% in test [4]; 108% in [5]; 106% in test [6]. The Activity in test [7] was found to be 97.5%; in test [8], 90.5%; in [9], 106%; in test [10], 99.5%; in test [11] it was 94%; in test [12], 116%. Moreover, the Activity in [13] was 105%; in test [14] it was 104%; in test [15], 130%; in test [16], 98%; in [17], 100%; in [18], 122%. Also, the Activity in test [19] is 104%; in [20] it was 97%; in test [21], 95%; in test [22] it was 99.5%. In addition, the outcome in the test with HCT-116 was Active.
